Literature values, collected in patent US11083734B2 (ACUCORT AB, priority 2014, dated 2021).

Tests used:
[1] = humans, oral administration, literature and product information

Row | SMILES | solubility in water | solubility in anhydrous ethanol | t(max) [1] [h]
1 | C[C@@H]1C[C@H]2[C@@H]3CCC4=CC(=O)C=C[C@]4(C)[C@@]3(F)[C@@H](O)C[C@]2(C)[C@@]1(O)C(=O)COP(=O)(O)O [dexamethasone sodium phosphate] | freely soluble |  | 
2 | C[C@@H]1C[C@H]2[C@@H]3CCC4=CC(=O)C=C[C@]4(C)[C@@]3(F)[C@@H](O)C[C@]2(C)[C@@]1(O)C(=O)CO [dexamethasone] | practically insoluble | sparingly soluble | ~1.5
